Laboratory results from article PMC6440977, “Nucleoside analogue activators of cyclic AMP-independent protein kinase A of Trypanosoma” (Nature Communications, 2019).
Where “and” joins values, the source holds several entries; their conditions need not be identical. Equal entries are not always repeated. Ends that are not written are not given here. * marks the point of attachment. Myristoyl = CCCCCCCCCCCCCC(=O)*

Experiments:
[1] = test system: T. brucei PKA holoenzyme (Ty1-PKAC1); format: biochemical, Trypanosoma brucei; settings: for effect on basal kinase activity of immunoprecipitated holoenzyme, in words / in vitro kinase assay [CPM], average / in vitro kinase assay [CPM]: 1 mM; for in vitro kinase assay [CPM], PKI: 1 mM + 5 µM PKI(5-24); for in vitro kinase assay [CPM], PKI / in vitro kinase assay [CPM], average / in vitro kinase assay [CPM]: Supp Fig 3c; for in vitro kinase assay [CPM], average: average of 3; for in vitro kinase assay [CPM]: independent replicates
[2] = target: T. brucei PKAR-PKAC1 holoenzyme (Trypanosoma brucei, UniProt Q9GU80); experiment: biochemical; format: biochemical; settings: for In vitro kinase assay: technical replicates
[3] = target: T. brucei PKA (Trypanosoma brucei brucei, UniProt Q9GU80); experiment: In vivo PKA reporter assay (VASP Ser-157 phosphorylation, western blot); format: cell-based; settings: for % VASP phosphorylation: independent replicates; for effect on in vivo PKA activity (VASP phosphorylation), in words: wild type background;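 on % VASP phosphorylation: Phosphorylated VASP as percent of total VASP band signal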;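 on all read-outs here: T. brucei cells expressing human VASP as heterologous PKA substrate, compound exposure at 37 °C, western blot of phospho (50 kDa) versus unphosphorylated (46 kDa) VASP band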
T. brucei PKA, sequence (Q38DS1 entry or part of it): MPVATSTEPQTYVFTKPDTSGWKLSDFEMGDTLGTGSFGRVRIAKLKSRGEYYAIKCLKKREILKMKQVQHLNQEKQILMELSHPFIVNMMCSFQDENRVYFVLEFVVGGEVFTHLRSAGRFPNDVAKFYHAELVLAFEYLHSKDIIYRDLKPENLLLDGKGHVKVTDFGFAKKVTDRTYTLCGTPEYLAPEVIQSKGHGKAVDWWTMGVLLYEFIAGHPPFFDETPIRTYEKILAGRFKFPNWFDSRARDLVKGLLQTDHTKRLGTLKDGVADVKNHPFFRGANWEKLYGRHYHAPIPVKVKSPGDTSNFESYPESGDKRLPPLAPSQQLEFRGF
T. brucei PKA, sequence (Q38DR5 entry or part of it, further chain): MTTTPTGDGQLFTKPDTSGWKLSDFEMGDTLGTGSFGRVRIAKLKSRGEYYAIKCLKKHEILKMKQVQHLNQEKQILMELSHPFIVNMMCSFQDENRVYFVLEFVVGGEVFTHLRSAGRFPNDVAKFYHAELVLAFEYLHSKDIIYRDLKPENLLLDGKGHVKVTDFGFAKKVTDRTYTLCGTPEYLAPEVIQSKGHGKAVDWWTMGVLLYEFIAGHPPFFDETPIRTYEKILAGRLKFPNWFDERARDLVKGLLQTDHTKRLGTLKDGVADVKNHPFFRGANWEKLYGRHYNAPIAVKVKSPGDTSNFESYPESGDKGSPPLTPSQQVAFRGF
T. brucei PKA, sequence (Q9GU80 entry or part of it): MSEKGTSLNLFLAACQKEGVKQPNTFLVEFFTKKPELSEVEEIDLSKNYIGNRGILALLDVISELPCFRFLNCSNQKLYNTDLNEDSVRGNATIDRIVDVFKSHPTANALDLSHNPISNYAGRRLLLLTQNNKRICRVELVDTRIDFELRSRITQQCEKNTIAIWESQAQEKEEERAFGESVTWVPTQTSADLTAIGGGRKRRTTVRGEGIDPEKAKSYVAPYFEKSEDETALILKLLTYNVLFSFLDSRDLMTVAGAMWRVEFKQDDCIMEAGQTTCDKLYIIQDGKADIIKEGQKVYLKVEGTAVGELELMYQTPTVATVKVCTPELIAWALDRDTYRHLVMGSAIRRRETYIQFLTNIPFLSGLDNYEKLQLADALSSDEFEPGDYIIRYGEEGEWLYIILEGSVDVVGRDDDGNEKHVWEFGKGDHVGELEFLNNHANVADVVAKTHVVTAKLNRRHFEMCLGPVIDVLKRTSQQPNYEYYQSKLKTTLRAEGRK

T. brucei PKAR-PKAC1 holoenzyme, sequence (Q38DR5 entry or part of it): as the sequence (Q38DR5 entry or part of it, further chain) above
T. brucei PKAR-PKAC1 holoenzyme, sequence (Q9GU80 entry or part of it): as the sequence (Q9GU80 entry or part of it) above

## O=c1[nH]cnc2c1ncn2[C@@H]1O[C@@H]2COP(=O)(O)O[C@H]2[C@H]1O [cIMP, inosine-3’,5’-cyclic monophosphate]
[1]
  effect on basal kinase activity of immunoprecipitated holoenzyme, in words: did not show any significant effects
  in vitro kinase assay [CPM], PKI: 620.6 CPM
  in vitro kinase assay [CPM], average: 7285.53 CPM
  in vitro kinase assay [CPM]: 5568.4 CPM and 8615.56 CPM and 7672.63 CPM

## OCCN(CCO)c1nc(N2CCCCC2)c2nc(N(CCO)CCO)nc(N3CCCCC3)c2n1 [Dipyridamol]
[2]; 1 µM
  In vitro kinase assay: 0.38 U/ml and 0.36 U/ml
[2]; 100 µM
  In vitro kinase assay: 0.31 U/ml and 0.36 U/ml
[2]; 1 mM
  In vitro kinase assay: 0.38 U/ml and 0.41 U/ml

## Nc1nc2c(nc(Sc3ccc(Cl)cc3)n2[C@@H]2O[C@@H]3COP(=O)(O)O[C@H]3[C@H]2O)c(=O)[nH]1 [8-pCPT-cGMP, 8-(4-Chlorophenylthio)guanosine-3',5'-cyclic monophosphate]
[3]; 10 µM
  % VASP phosphorylation: 25.8142% and 29.2369% and 19.6808%
[3]; 50 µM
  % VASP phosphorylation: 27.9869% and 31.8421% and 17.4767%
[3]; 100 µM
  % VASP phosphorylation: 30.4284% and 21.992% and 28.117%
[3]; 250 µM
  % VASP phosphorylation: 30.7048% and 20.4067% and 21.3305%
[3]; 1000 µM
  % VASP phosphorylation: 32.0969% and 20.8683% and 24.288%

## CC(=O)OCOP1(=O)OC[C@H]2O[C@@H](n3cnc4c(=O)[nH]c(N)nc43)[C@H](O)[C@@H]2O1 (stereo partly shown) [cGMP-AM, Guanosine-3',5'-cyclic monophosphate, acetoxymethyl ester]
[3]; 10 µM
  % VASP phosphorylation: 34.8925% and 34.7802% and 32.2694%
[3]; 20 µM
  % VASP phosphorylation: 44.672% and 38.9969% and 29.3979%
[3]; 50 µM
  % VASP phosphorylation: 40.2424% and 33.9184% and 40.637%
[3]; 100 µM
  % VASP phosphorylation: 34.6686% and 36.9156% and 43.827%
[3]; 200 µM
  % VASP phosphorylation: 34.2202% and 37.453% and 36.5899%

## Nc1nc(Cl)nc2c1ncn2[C@@H]1O[C@H](CO)[C@@H](O)[C@H]1O [2-Cl-Ado, 2-Chloroadenosine]
[3]
  effect on in vivo PKA activity (VASP phosphorylation), in words: no effect

## CO[C@@H]1[C@@H]2OP(=O)(O)OC[C@H]2O[C@H]1n1c(Sc2ccc(Cl)cc2)nc2c(N)ncnc21 [8-pCPT-2′-O-Me-cAMP, 8-(4-Chlorophenylthio)-2'-O-methyladenosine-3',5'-cyclic monophosphate]
[3]
  effect on in vivo PKA activity (VASP phosphorylation), in words: No PKA activation

## Nc1ncnc2c1nc(Sc1ccc(Cl)cc1)n2[C@@H]1O[C@H](CO)[C@@H](O)[C@H]1O [8-pCPT-Ado, 8-(4-Chlorophenylthio)adenosine]
[3]
  effect on in vivo PKA activity (VASP phosphorylation), in words: slight inhibitory

## CO[C@@H]1[C@@H]2OP(=O)(O)OC[C@H]2O[C@H]1n1c(Sc2ccc(Cl)cc2)nc2c(N)ncnc21 [8-pCPT-2'O-me-cAMP]
[3]; 10 µM
  % VASP phosphorylation: 41.2113% and 39.9561% and 36.9456%
[3]; 20 µM
  % VASP phosphorylation: 34.7976% and 43.6436% and 30.9578%
[3]; 50 µM
  % VASP phosphorylation: 31.7213% and 39.4904% and 29.8481%
[3]; 100 µM
  % VASP phosphorylation: 33.7045% and 41.4368% and 33.2969%
[3]; 250 µM
  % VASP phosphorylation: 30.1497% and 39.413% and 35.4525%

## OC[C@H]1O[C@@H](n2cnc3c(Cl)ncnc32)[C@H](O)[C@@H]1O [6-Cl-PuR, 6-Chloropurine riboside]
[3]; 2 µM
  % VASP phosphorylation: 27.0392% and 26.6154% and 24.2815%
[3]; 5 µM
  % VASP phosphorylation: 24.7092% and 27.9877% and 23.4187%
[3]; 10 µM
  % VASP phosphorylation: 20.6897% and 25.2945% and 23.0524%
[3]; 20 µM
  % VASP phosphorylation: 24.6262% and 26.5882% and 23.4334%
[3]; 50 µM
  % VASP phosphorylation: 28.7467% and 26.8897% and 25.4464%
[3]; 100 µM
  % VASP phosphorylation: 33.239% and 35.1611% and 28.0731%
[3]
  effect on in vivo PKA activity (VASP phosphorylation), in words: no effect

## myr-PKI(14–22): myristoylated membrane-permeable peptide inhibitor of PKA (Myristoyl-SGRTGRRNA; UniProt P61925 14-22, looked up, fragment)
[3]; depending on the inhibitor batch
  VASP phosphorylation upon treatment with inhibitor alone: 3-10%
[3]
  effect on in vivo PKA activity (VASP phosphorylation), in words: reduced the measured activity to background

## Nc1ncnc2nc(Sc3ccc(Cl)cc3)[nH]c12 [8-pCPT-Ade, 8-(4-Chlorophenylthio)adenine]
[3]
  effect on in vivo PKA activity (VASP phosphorylation), in words: no effect

## Nc1ncnc2c1cc(Br)n2[C@@H]1O[C@H](CO)[C@@H](O)[C@H]1O [6-Br-Tu, 8-Bromo-7-deazaadenosine]
[3]
  effect on in vivo PKA activity (VASP phosphorylation), in words: no effect

## Nc1ncnc2c1ccn2[C@@H]1O[C@H](CO)[C@@H](O)[C@H]1O [Tubercidin, 7-Deazaadenosine]
[2]
  EC50: 5 ± 0.5 µM
[2]; 0.1 µM
  In vitro kinase assay: 0.31 U/ml and 0.36 U/ml
[2]; 0.78 µM
  In vitro kinase assay: 0.36 U/ml and 0.39 U/ml
[2]; 1.56 µM
  In vitro kinase assay: 0.39 U/ml and 0.42 U/ml
[2]; 3.13 µM
  In vitro kinase assay: 0.51 U/ml and 0.54 U/ml
[2]; 6.25 µM
  In vitro kinase assay: 0.7 U/ml and 0.67 U/ml
[2]; 12.5 µM
  In vitro kinase assay: 0.84 U/ml and 0.75 U/ml
[2]; 25 µM
  In vitro kinase assay: 0.84 U/ml and 0.93 U/ml
[2]; 50 µM
  In vitro kinase assay: 0.89 U/ml and 0.85 U/ml
[3]
  effect on in vivo PKA activity (VASP phosphorylation), in words: No effect

## CO[C@@H]1[C@H](O)[C@@H](CO)O[C@H]1n1c(Sc2ccc(Cl)cc2)nc2c(N)ncnc21 [8-pCPT-2-′O-Me-Ado, 8-(4-Chlorophenylthio)-2'-O-methyladenosine]
[3]
  effect on in vivo PKA activity (VASP phosphorylation), in words: slight inhibitory

## CC(=O)OCOP1(=O)OC[C@H]2O[C@@H](n3cnc4c(N)ncnc43)[C@H](O)[C@@H]2O1 (stereo partly shown) [cAMP-AM, Adenosine-3',5'-monophosphate, acetoxymethyl ester]
[3]; 10 µM
  % VASP phosphorylation: 36.276% and 37.2% and 34.8195%
[3]; 20 µM
  % VASP phosphorylation: 33.4307% and 32.7356% and 35.3637%
[3]; 50 µM
  % VASP phosphorylation: 35.9017% and 33.7363% and 34.7458%
[3]; 100 µM
  % VASP phosphorylation: 35.4076% and 39.0007% and 33.2483%
[3]; 200 µM
  % VASP phosphorylation: 44.3984% and 35.5186% and 38.5924%
[3]
  effect on in vivo PKA activity (VASP phosphorylation), in words: No PKA activation

## Nc1nc2c(nc(Sc3ccc(Cl)cc3)n2[C@@H]2O[C@H](CO)[C@@H](O)[C@H]2O)c(=O)[nH]1 [8-pCPT-Guo, 8-(4-Chlorophenylthio)guanosine]
[3]
  effect on in vivo PKA activity (VASP phosphorylation), in words: no effect

## CO[C@@H]1[C@H](O)[C@@H](CO)O[C@H]1n1c(Sc2ccc(Cl)cc2)nc2c(N)ncnc21 [8-pCPT-2'O-me-Ado]
[3]; 10 µM
  % VASP phosphorylation: 17.7877% and 18.0048% and 22.1674%
[3]; 20 µM
  % VASP phosphorylation: 16.9524% and 18.6949% and 22.9783%
[3]; 50 µM
  % VASP phosphorylation: 17.4825% and 18.9639% and 23.6777%
[3]; 100 µM
  % VASP phosphorylation: 18.5972% and 20.7972% and 25.3942%
[3]; 250 µM
  % VASP phosphorylation: 20.7922% and 23.6499% and 24.007%

## Nc1ncnc2c1nc(Sc1ccc(Cl)cc1)n2[C@@H]1O[C@@H]2COP(=O)([O-])O[C@H]2[C@H]1O.[Na+] [8-pCPT-cAMP, 8-(4-Chlorophenylthio)adenosine-3',5'-cyclic monophosphate]
[3]; 10 µM
  % VASP phosphorylation: 24.5763% and 23.1009% and 28.0286%
[3]; 50 µM
  % VASP phosphorylation: 16.5457% and 18.6378% and 24.8744%
[3]; 100 µM
  % VASP phosphorylation: 10.9425% and 13.8058% and 25.7149%
[3]; 250 µM
  % VASP phosphorylation: 9.807% and 10.2688% and 23.6208%
[3]; 1000 µM
  % VASP phosphorylation: 10.7438% and 15.1961% and 19.6401%
[3]
  effect on in vivo PKA activity (VASP phosphorylation), in words: No PKA activation

## COC1C2OP(=O)(O)OCC2OC1n1c(Sc2ccc(Cl)cc2)nc2c(=O)[nH]c(N)nc21 (stereo not shown) [8-pCPT-2'O-me-cGMP]
[3]; 10 µM
  % VASP phosphorylation: 38.4582% and 35.5972% and 37.6064%
[3]; 20 µM
  % VASP phosphorylation: 40.2883% and 38.6651% and 38.3333%
[3]; 50 µM
  % VASP phosphorylation: 40.3308% and 52.7132% and 36.328%
[3]; 100 µM
  % VASP phosphorylation: 39.4763% and 48.2408% and 35.1104%
[3]; 250 µM
  % VASP phosphorylation: 43.9368% and 67.0264% and 36.1457%

## O=c1[nH]c(=O)c2ncn(C3OC4COP(=O)(O)OC4C3O)c2[nH]1 (stereo not shown) [cXMP, xanthosine-3’,5’-cyclic monophosphate]
[1]
  effect on basal kinase activity of immunoprecipitated holoenzyme, in words: did not show any significant effects
  in vitro kinase assay [CPM], PKI: 870.13 CPM
  in vitro kinase assay [CPM], average: 6246.71 CPM
  in vitro kinase assay [CPM]: 4909.43 CPM and 6708.76 CPM and 7121.93 CPM

## Nc1ncnc2c1nc(Br)n2[C@@H]1O[C@H](CO)[C@@H](O)[C@H]1O [8-Br-Ado, 8-Bromoadenosine]
[3]
  effect on in vivo PKA activity (VASP phosphorylation), in words: no effect

## O=c1ccn([C@@H]2O[C@@H]3COP(=O)(O)O[C@H]3[C@H]2O)c(=O)[nH]1 [cUMP, uridine -3’,5’-cyclic monophosphate]
[1]
  effect on basal kinase activity of immunoprecipitated holoenzyme, in words: did not show any significant effects
  in vitro kinase assay [CPM], PKI: 572.53 CPM
  in vitro kinase assay [CPM], average: 5670.69 CPM
  in vitro kinase assay [CPM]: 4751.21 CPM and 5966.27 CPM and 6294.58 CPM
